Assay results published in patent US8026247B2, “Bicyclic amides as kinase inhibitors” (Novartis AG, priority 2004, dated 2011).

Q: Which melting point does the source give for `COC(=O)Nc1cc(Oc2ccc3c(C(=O)Nc4cccc(C(F)(F)F)c4)cccc3c2)ccn1` [Example 69, {4-[5-(3-Trifluoromethyl-phenylcarbamoyl)-naphthalen-2-yloxy]-pyridin-2-yl}-carbamic acid methyl ester] here?
A: Its melting point is 230 to 232 °C.

Q: With `Nc1cc(Oc2ccc3c(C(=O)Nc4cccc(C(F)(F)F)c4)cccc3c2)ncn1` [Example 26, 6-(6-Amino-pyrimidin-4-yloxy)-naphthalene-1-carboxylic acid (3-trifluoromethyl-phenyl)-amide] as the molecule, how does the melting point read?
A: The melting point was 243 to 244 °C.

Q: For `Nc1cc(Sc2ccc3c(C(=O)Nc4ccc(F)c(C(F)(F)F)c4)cccc3c2)ncn1` [Example 57, 6-(6-Amino-pyrimidin-4-ylsulfanyl)-naphthalene-1-carboxylic acid (4-fluoro-3-trifluoromethyl-phenyl)-amide], which melting point is on record?
A: The melting point was 221 °C.

Q: Which melting point does the source give for `CC(C)(C)c1cc(NC(=O)c2cncc3cc(Oc4cc(N)ncn4)ccc23)n(-c2ccc(F)cc2)n1` [Example 94, 7-(6-Amino-pyrimidin-4-yloxy)-isoquinoline-4-carboxylic acid [5-tert-butyl-2-(4-fluoro-phenyl)-2H-pyrazol-3-yl]-amide] here?
A: The melting point was 124 to 126 °C.

Q: Which melting point does the source give for `Nc1nccc(Oc2ccc3c(c2)OCCN3C(=O)Nc2cccc(C(F)(F)F)c2)n1` [Example 10, 7-(2-Amino-pyrimidin-4-yloxy)-2,3-dihydro-benzo[1,4]oxazine-4-carboxylic acid (3-trifluoromethyl-phenyl)-amide] here?
A: Its melting point is 161 to 163 °C.

Q: For `CNc1cc(Oc2ccc3c(c2)OCCN3C(=O)Nc2cccc(C(F)(F)F)c2)ncn1` [Example 9, 7-(6-Methylamino-pyrimidin-4-yloxy)-2,3-dihydro-benzo[1,4]oxazine-4-carboxylic acid (3-trifluoromethyl-phenyl)-amide], which melting point is on record?
A: Its melting point is 180 °C.

Q: Which melting point does the source give for `CC(C)c1ccc(-n2nc(C(C)(C)C)cc2NC(=O)c2cncc3cc(Oc4cc(N)ncn4)ccc23)cc1` [Example 93, 7-(6-Amino-pyrimidin-4-yloxy)-isoquinoline-4-carboxylic acid [5-tert-butyl-2-(4-isopropyl-phenyl)-2H-pyrazol-3-yl]-amide] here?
A: The melting point was 131 to 133 °C.

Q: For `Nc1cc(Sc2ccc3c(C(=O)Nc4cccc(OC(F)(F)F)c4)cccc3c2)ncn1` [Example 61, 6-(6-Amino-pyrimidin-4-ylsulfanyl)-naphthalene-1-carboxylic acid (3-trifluoromethoxy-phenyl)-amide], which melting point is on record?
A: The melting point was 197 to 199 °C.

Q: Which melting point does the source give for `CNCc1cc(Oc2ccc3c(C(=O)Nc4cccc(C(F)(F)F)c4)cccc3c2)ncn1` [Example 54, 6-(6-Methylaminomethyl-pyrimidin-4-yloxy)-naphthalene-1-carboxylic acid (3-trifluoromethyl-phenyl)-amide] here?
A: Its melting point is 141 to 143 °C.

Q: Which melting point does the source give for `CNC(=O)c1cc(Oc2ccc3c(C(=O)Nc4cccc(C(F)(F)F)c4)cccc3c2)ccn1` [Example 65, 4-[5-(3-Trifluoromethyl-phenylcarbamoyl)-naphthalen-2-yloxy]-pyridine-2-carboxylic acid methylamide] here?
A: Its melting point is 175 to 177 °C.

Q: For `O=C(Nc1cccc(C(F)(F)F)c1)c1cccc2cc(Oc3cc(CCl)ncn3)ccc12` [Example 53, 6-(6-Chloromethyl-pyrimidin-4-yloxy)-naphthalene-1-carboxylic acid (3-trifluoromethyl-phenyl)-amide], which melting point is on record?
A: Its melting point is 178 to 181 °C.

Q: With `Nc1cc(Oc2ccc3c(C(=O)Nc4cccc(C(F)(F)F)c4)cccc3c2)ccn1` [Example 68, 6-(2-Amino-pyridin-4-yloxy)-naphthalene-1-carboxylic acid (3-trifluoromethyl-phenyl)-amide] as the molecule, how does the melting point read?
A: Its melting point is 222 to 224 °C.

Q: Which melting point does the source give for `Nc1nccc(CCc2ccc3c(C(=O)Nc4cccc(C(F)(F)F)c4)cccc3c2)n1` [Example 70, 6-[2-(2-Amino-pyrimidin-4-yl)-ethyl]-naphthalene-1-carboxylic acid (3-trifluoromethyl-phenyl)-amide] here?
A: The melting point was 225 to 227 °C.

Q: Which melting point does the source give for `CN(C)CCNC(=O)c1cc(Oc2ccc3c(C(=O)Nc4cccc(C(F)(F)F)c4)cccc3c2)ccn1` [Example 67, 4-[5-(3-Trifluoromethyl-phenylcarbamoyl)-naphthalen-2-yloxy]-pyridine-2-carboxylic acid (2-dimethylamino-ethyl)-amide] here?
A: The melting point was 80 to 82 °C.

Q: Which melting point does the source give for `Nc1cc(Sc2ccc3c(C(=O)Nc4cccc(C(F)(F)F)c4)cccc3c2)ncn1` [Example 58, 6-(6-Amino-pyrimidin-4-ylsulfanyl)-naphthalene-1-carboxylic acid (3-trifluoromethyl-phenyl)-amide] here?
A: The melting point was 205 °C.

Q: For `CC(=O)Nc1nccc(Oc2ccc3c(C(=O)Nc4cccc(C(F)(F)F)c4)cccc3c2)n1` [Example 18, 6-(2-Acetylamino-pyrimidin-4-yloxy)-naphthalene-1-carboxylic acid (3-trifluoromethyl-phenyl)-amide], which melting point is on record?
A: Its melting point is 216 to 217 °C.

Q: For `CNc1cc(Oc2ccc3c(C(=O)Nc4ccc(N5CCOCC5)c(C(F)(F)F)c4)cccc3c2)ncn1` [Example 40, 6-(6-Methylamino-pyrimidin-4-yloxy)-naphthalene-1-carboxylic acid (4-morpholin-4-yl-3-trifluoromethyl-phenyl)-amide], which melting point is on record?
A: Its melting point is 156 to 157 °C.

Q: With `Nc1cc(Oc2ccc3c(C(=O)Nc4ccc(F)c(C(F)(F)F)c4)cccc3c2)ncn1` [Example 25, 6-(6-Amino-pyrimidin-4-yloxy)-naphthalene-1-carboxylic acid (4-fluoro-3-trifluoromethyl-phenyl)-amide] as the molecule, how does the melting point read?
A: Its melting point is 224 to 225 °C.

Q: With `Nc1cc(S(=O)(=O)c2ccc3c(C(=O)Nc4cccc(C(F)(F)F)c4)cccc3c2)ncn1` [Example 60, 6-(6-Amino-pyrimidine-4-sulfonyl)-naphthalene-1-carboxylic acid (3-trifluoromethyl-phenyl)-amide] as the molecule, how does the melting point read?
A: The melting point was 229 to 231 °C.

Q: For `COC(=O)Nc1nccc(Oc2ccc3c(C(=O)Nc4cccc(C(F)(F)F)c4)cccc3c2)n1` [Example 19, 6-(2-Methoxycarbonylamino-pyrimidin-4-yloxy)-naphthalene-1-carboxylic acid (3-trifluoromethyl-phenyl)-amide], which melting point is on record?
A: Its melting point is 199 to 200 °C.

Q: For `CC(C)NC(=O)c1cc(Oc2ccc3c(C(=O)Nc4cccc(C(F)(F)F)c4)cccc3c2)ncn1` [Example 51, 6-[5-(3-Trifluoromethyl-phenylcarbamoyl)-naphthalen-2-yloxy]-pyrimidine-4-carboxylic acid isopropylamide], which melting point is on record?
A: Its melting point is 205 to 208 °C.

Q: For `Nc1nc(Cl)cc(Oc2ccc3c(C(=O)Nc4cccc(C(F)(F)F)c4)cccc3c2)n1` [Example 13, 6-(2-Amino-6-chloro-pyrimidin-4-yloxy)-naphthalene-1-carboxylic acid (3-trifluoromethyl-phenyl)-amide], which melting point is on record?
A: Its melting point is 234 to 236 °C.

Q: For `CN(C)Cc1cc(Oc2ccc3c(C(=O)Nc4cccc(C(F)(F)F)c4)cccc3c2)ncn1` [Example 55, 6-(6-Dimethylaminomethyl-pyrimidin-4-yloxy)-naphthalene-1-carboxylic acid (3-trifluoromethyl-phenyl)-amide], which melting point is on record?
A: Its melting point is 180 to 181 °C.

Q: Which melting point does the source give for `CNc1cc(Oc2ccc3c(C(=O)Nc4ccc(F)c(C(F)(F)F)c4)cncc3c2)ncn1` [Example 95, 7-(6-Methylamino-pyrimidin-4-yloxy)-isoquinoline-4-carboxylic acid (4-fluoro-3-trifluoromethyl-phenyl)-amide] here?
A: Its melting point is 255 to 257 °C.

Q: With `N#Cc1cc(Oc2ccc3c(C(=O)Nc4cccc(C(F)(F)F)c4)cccc3c2)ncn1` [Example 43, 6-(6-Cyano-pyrimidin-4-yloxy)-naphthalene-1-carboxylic acid (3-trifluoromethyl-phenyl)-amide] as the molecule, how does the melting point read?
A: The melting point was 167 °C.

Q: With `Nc1cc(C#Cc2ccc3c(C(=O)Nc4cccc(C(F)(F)F)c4)cccc3c2)ncn1` [Example 71, 6-(6-Amino-pyrimidin-4-ylethynyl)-naphthalene-1-carboxylic acid (3-trifluoromethyl-phenyl)-amide] as the molecule, how does the melting point read?
A: The melting point was 217 to 220 °C.

Q: Which melting point does the source give for `CNc1cc(Oc2ccc3c(C(=O)Nc4cccc(C(F)(F)F)c4)cncc3c2)ncn1` [Example 96, 7-(6-Methylamino-pyrimidin-4-yloxy)-isoquinoline-4-carboxylic acid (3-trifluoromethyl-phenyl)-amide] here?
A: The melting point was 205 to 208 °C.

Q: For `CNc1cc(Oc2ccc3c(c2)OCCN3C(=O)Nc2ccc(C)c(C(F)(F)F)c2)ncn1` [Example 8, 7-(6-Methylamino-pyrimidin-4-yloxy)-2,3-dihydro-benzo[1,4]oxazine-4-carboxylic acid (4-methyl-3-trifluoromethyl-phenyl)-amide], which melting point is on record?
A: Its melting point is 180 to 182 °C.

Q: With `NC(=O)c1cc(Oc2ccc3c(C(=O)Nc4cccc(C(F)(F)F)c4)cccc3c2)ccn1` [Example 66, 4-[5-(3-Trifluoromethyl-phenylcarbamoyl)-naphthalen-2-yloxy]-pyridine-2-carboxylic acid amide] as the molecule, how does the melting point read?
A: The melting point was 117 to 120 °C.

Q: Which melting point does the source give for `CCCCOC(=O)c1cc(Oc2ccc3c(C(=O)Nc4cccc(C(F)(F)F)c4)cccc3c2)ccn1` [Example 64, 4-[5-(3-Trifluoromethyl-phenylcarbamoyl)-naphthalen-2-yloxy]-pyridine-2-carboxylic acid butyl ester] here?
A: Its melting point is 128 to 130 °C.
